Measurements as given in patent publication US8986733B2, “Materials and methods for nerve repair” (University of Florida Research Foundation, Inc., priority 2001, dated 2015).

Columns and labels:
rat sciatic nerve [1] = test: Bilateral sciatic nerve crush injury (axonotmesis), GAP-43 axon scoring; assay type: in vivo; conditions: 2 days after injury; for axonal regeneration after nerve crush injury (GAP-43 immunoreactivity) vs vehicle: 1 U injected
Experimental: Surgical procedures for nerve transection and nerve crush experiments. All surgical procedures were performed according to Institutional Animal Care and Use Committee (IACUC) approved protocols. Young adult SPRAGUE DAWLEY rats (HARLAN Indianapolis, Ind.) were deeply anesthetized with xylazine (15 mg/kg, i.m.) followed by ketamine-HCl (110 mg/kg, i.p.). Six animals received bilateral nerve crush injuries. Sciatic nerves were exposed and then crushed with firm pressure for thirty seconds with a DUMONT #5 forceps at a site 4 mm distal to the tendon of the internal obdurator. The crush site was marked with an epineurial suture. In a separate set of experiments, eight rats received bilateral sciatic nerve transection injuries using serrated scissors. The proximal and distal stumps were […] by epineurial neurorrhaphy using 9-0 ETHILON sutures. Fibrin glue (fibrinogen and thrombin) was then applied to stabilize the union. In both injury models, the right sciatic nerves were injected 2-mm distal to the injury with chondroitinase ABC (1 U in 2 μl) (high-purity, protease-free; SIGMA CHEMICAL CO., St. Louis, […].). Left sciatic nerves (with the same injury as the right side) were injected with vehicle alone (0.1% bovine serum albumin in PBS). Muscle incisions were sutured and the skin closed with metal clips. After recovery from the anesthetic, animals were returned to standard housing. Two days (for crush injury) and four days (for transection injury) after surgery, nerves were removed under anesthesia and fixed as described below. One of the eight animals receiving nerve transection and repair was excluded because loss of continuity in one nerve occurred during convalescence.
The hypothesis that chondroitinase treatment improves axonal growth through the site of nerve crush injury was tested. Bilateral axonotmesis was achieved by severely crushing the sciatic nerves while maintaining the continuity of the nerve sheaths. […] Regenerating axons were labeled by GAP-43 immunofluorescence and scored by digital image analysis. […]

rat sciatic nerve [2] = test: Interpositional acellular nerve grafting, GAP-43 axon scoring; assay type: in vivo
From the text: Preparation of acellular nerve grafts treated with chondroitinase. Adult (180-200 g) female SPRAGUE DAWLEY rats (HARLAN, Indianapolis, Ind.) were used as nerve donors and recipient hosts. Donor rats were anesthetized with halothane and decapitated. Sciatic nerves were exposed through a gluteal muscle-splitting incision and isolated free of underlying fascia. A 15-mm nerve segment was excised rostral to the bifurcation into common peroneal and tibial nerves. The segments were rinsed with cold sterile Ringer's solution, stabilized by pinning the ends to a thin plastic support, and transferred to a cryogenic vial. The vials were submerged in liquid nitrogen for 2 minutes and then transferred to a 37° C. water bath for 2 minutes. This freeze/thaw cycle was repeated, yielding acellular nerve grafts that were then stored in liquid nitrogen. On the day before grafting, the nerve grafts were warmed to room temperature and incubated in 100 μl phosphate buffered saline pH 7.4 (PBS) containing 2 units/ml chondroitinase ABC (SIGMA, St. Louis, Mo.) or in PBS (vehicle) only for 16 hours at 37° C. The grafts were rinsed twice with Ringer's and kept on ice prior to use. The chondroitinase ABC preparation was highly purified and stated by the manufacturer to be essentially free of protease activity.
Interpositional nerve grafting for chondroitinase experiments. Twelve rats received bilateral acellular nerve grafts, one chondroitinase-treated and one vehicle-treated graft. Host rats were deeply anesthetized using xylazine (15 mg/kg, i.m.) and ketamine (110 mg/kg, i.p.). The sciatic nerve was exposed and supported by a plastic insert placed between the nerve and underlying tissue. The region of nerve halfway between the sciatic notch and bifurcation was first coated with fibrin glue. […]
The main grafts were sectioned serially on the transverse plane in recorded measure to assess the extent of axonal growth by microscopy. […] GAP-43-positive axon profiles were scored using IMAGE-PRO PLUS software (MEDIA CYBERNETICS, Silver Springs, Md.). […]

Substance: chondroitinase ABC
- latency or rate of axonal regeneration after crush (rat sciatic nerve [1]): no indication that the latency or rate of axonal regeneration was altered
- axonal regeneration after nerve crush injury (GAP-43 immunoreactivity) vs vehicle (rat sciatic nerve [1]): no significant difference
- axonal regeneration after nerve crush injury (GAP-43 immunoreactivity) vs vehicle (rat sciatic nerve [1]; listed as chondroitinase): not significantly effected
- latency of axonal regeneration into acellular nerve grafts (rat sciatic nerve [2]; 4-day and 8-day grafts): decreases the latency
- axonal penetration vs control grafts (rat sciatic nerve [2]; 4-day grafts, 0.3 mm from the host-graft interface): five-fold greater
- average number of axons (GAP-43-immunopositive profiles) entering grafts vs control grafts (rat sciatic nerve [2]; 8-day grafts, en bloc treated acellular syngrafts): more than three-fold greater
